Measurements from ChEMBL document CHEMBL4184220, “Identification of novel plasminogen activator inhibitor-1 inhibitors with improved oral bioavailability: Structure optimization of N-acylanthranilic acid derivatives” (Bioorg Med Chem Lett, 2018).

Assays:
[1] = Cmax in Wistar rat at 5 mg/kg, po administered as triple or quadruple dosing measured after 1 to 24 hrs by reverse-phase HPLC method; format: ADME, organism-based; set-up: dose 5 mg/kg, route oral; conditions: in vivo
[2] = Tmax in Wistar rat at 5 mg/kg, po administered as triple or quadruple dosing measured after 1 to 24 hrs by reverse-phase HPLC method; format: ADME, organism-based; conditions: in vivo
[3] = Half life in Wistar rat at 5 mg/kg, po administered as triple or quadruple dosing measured after 1 to 24 hrs by reverse-phase HPLC method; format: ADME, organism-based; conditions: in vivo
[4] = biological target: Plasminogen activator inhibitor 1 (Homo sapiens, UniProt P05121); assay: Inhibition of human PAI-1 assessed as remaining enzyme activity by measuring p-nitroaniline release pre-incubated for 15 mins before 2 nM […] addition for 15 mins using 5 nM enzyme and chromogenic substrate S-2288 by spectrophotometry
Chain of Plasminogen activator inhibitor 1 (P05121 whole entry): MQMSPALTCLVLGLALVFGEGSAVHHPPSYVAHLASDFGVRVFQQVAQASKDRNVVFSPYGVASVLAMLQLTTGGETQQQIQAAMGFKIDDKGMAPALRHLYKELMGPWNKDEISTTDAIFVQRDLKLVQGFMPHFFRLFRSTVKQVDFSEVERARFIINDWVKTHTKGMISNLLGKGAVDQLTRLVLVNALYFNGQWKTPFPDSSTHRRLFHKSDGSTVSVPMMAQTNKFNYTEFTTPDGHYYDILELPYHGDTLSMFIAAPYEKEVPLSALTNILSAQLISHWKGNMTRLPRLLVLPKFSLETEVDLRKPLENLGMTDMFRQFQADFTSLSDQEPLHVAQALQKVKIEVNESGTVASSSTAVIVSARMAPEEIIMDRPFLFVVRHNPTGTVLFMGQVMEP

[5] = Cmax in Wistar rat at 50 mg/kg, po administered as single dose measured after 1 to 24 hrs by reverse-phase HPLC method; format: ADME, organism-based; set-up: dose 50 mg/kg, route oral; conditions: in vivo
[6] = Tmax in Wistar rat at 50 mg/kg, po administered as single dose measured after 1 to 24 hrs by reverse-phase HPLC method; format: ADME, organism-based; conditions: in vivo
[7] = Cmax in Wistar rat at 5 mg/kg, po administered as single dose measured after 1 to 24 hrs by reverse-phase HPLC method; format: ADME, organism-based; set-up: dose 5 mg/kg, route oral; conditions: in vivo
[8] = Tmax in Wistar rat at 5 mg/kg, po administered as single dose measured after 1 to 24 hrs by reverse-phase HPLC method; format: ADME, organism-based; conditions: in vivo
[9] = Half life in Wistar rat at 5 mg/kg, po administered as single dose measured after 1 to 24 hrs by reverse-phase HPLC method; conditions: in vivo
[10] = Half life in Wistar rat at 50 mg/kg, po administered as single dose measured after 1 to 24 hrs by reverse-phase HPLC method; conditions: in vivo

O=C(Nc1ccc(Cl)cc1C(=O)O)c1ccc(-c2ccccc2)cc1
Cmax [1]: 73.5 µM | Tmax [2]: 2 h | half-life [3]: 10.4 h | IC50 [4]: 2980 nM

O=C(Nc1ccc(Cl)cc1C(=O)O)c1cccc(C23CC4CC(CC(C4)C2)C3)c1
Cmax [1]: 4.4 µM | Tmax [2]: 2 h | half-life [3]: 2.3 h | IC50 [4]: 1860 nM

O=C(Nc1ccc(Cl)cc1C(=O)[O-])c1cccc(-c2cnc3ccccc3c2)c1.[Na+]
Cmax [1]: 1.1 µM | Tmax [2]: 2 h | half-life [3]: 3.5 h | IC50 [4]: 1670 nM

O=C(COCC(=O)Nc1ccc(Cl)cc1C(=O)[O-])Nc1cccc(-c2ccc(F)cc2)c1.[Na+]
Cmax [5]: 62.8 µM | Tmax [6]: 1 h

O=C(COCC(=O)Nc1ccc(Cl)cc1C(=O)[O-])Nc1cccc(-n2cccc2)c1.[Na+]
Cmax [7]: 7.4 µM | Tmax [8]: 2 h | half-life [9]: 2.2 h

O=C(Nc1ccc(Cl)cc1C(=O)[O-])c1cccc(-c2cncc3ccccc23)c1.[Na+]
Cmax [1]: 1 µM | Tmax [2]: 6 h | half-life [3]: 9.2 h | IC50 [4]: 3190 nM

O=C(COCC(=O)Nc1ccc(Cl)cc1C(=O)O)Nc1cccc(-c2ccoc2)c1
Cmax [5]: 149 µM | Tmax [6]: 1 h | Cmax [7]: 17.9 µM | Tmax [8]: 1 h

O=C(NCc1cccc(-c2ccoc2)c1)C(=O)Nc1ccc(Cl)cc1C(=O)O
Cmax [1]: 41.6 µM | Tmax [2]: 2 h | half-life [3]: > 22 h

O=C(Nc1ccc(Cl)cc1C(=O)[O-])c1cccc(-c2cccc3cnccc23)c1.[Na+]
Cmax [1]: 1.2 µM | Tmax [2]: 2 h | half-life [3]: 10.5 h | IC50 [4]: 1840 nM

O=C(COc1cccc(-c2ccoc2)c1)Nc1ccc(Cl)cc1C(=O)O
Cmax [1]: 56.3 µM | Tmax [2]: 2 h | half-life [3]: 1.9 h

COc1cccc(-c2ccc(C)c(NC(=O)COCC(=O)Nc3ccc(Cl)cc3C(=O)O)c2)c1
Cmax [7]: 9.4 µM | Tmax [8]: 2 h | half-life [9]: 1.5 h

O=C(Nc1ccc(Cl)cc1C(=O)O)c1ccc(C(=O)c2ccccc2)cc1
Cmax [1]: 35 µM | Tmax [2]: 1 h | half-life [3]: 0.9 h | IC50 [4]: 4110 nM

O=C(COCC(=O)Nc1ccc(Cl)cc1C(=O)[O-])Nc1cccc(-c2cccnc2)c1.[Na+]
Cmax [5]: 15.1 µM | Tmax [6]: 2 h

Cc1ccc(-c2ccc(F)cc2)cc1NC(=O)COCC(=O)Nc1ccc(Cl)cc1C(=O)O
Cmax [5]: 92.7 µM | Tmax [6]: 1 h | half-life [10]: 1.8 h

O=C(COCC(=O)Nc1ccc(Cl)cc1C(=O)O)NCc1cccc(-c2ccoc2)c1
Cmax [1]: 14 µM | Tmax [2]: 2 h | half-life [3]: 2.7 h

O=C(Nc1ccc(Cl)cc1C(=O)O)c1ccc(C2CCOCC2)cc1
Cmax [1]: 45.5 µM | Tmax [2]: 1 h | half-life [3]: 1.8 h | IC50 [4]: 21600 nM

O=C(Nc1ccc(Cl)cc1C(=O)[O-])c1cccc(-c2cccc3cccnc23)c1.[Na+]
Cmax [1]: 22.2 µM | Tmax [2]: 1 h | half-life [3]: 2.5 h | IC50 [4]: 3630 nM

O=C(Nc1ccc(Cl)cc1C(=O)O)c1ccc(C23CC4CC(CC(C4)C2)C3)cc1
Cmax [1]: 13.8 µM | Tmax [2]: 2 h | half-life [3]: 4.3 h | IC50 [4]: 1170 nM

O=C(COCC(=O)Nc1ccc(Cl)cc1C(=O)O)Nc1cccc(-c2ccsc2)c1
Cmax [5]: 86.5 µM | Tmax [6]: 2 h

O=C(Nc1ccc(Cl)cc1C(=O)O)c1ccc(Oc2ccccc2)cc1
Cmax [1]: 64.2 µM | Tmax [2]: 6 h | half-life [3]: 13.3 h | IC50 [4]: 5520 nM

O=C(COCC(=O)Nc1ccc(Cl)cc1C(=O)O)Nc1ccc(-c2ccncc2)cc1
Cmax [5]: 7.8 µM | Tmax [6]: 6 h

O=C(Nc1cccc(-c2ccoc2)c1)C(=O)Nc1ccc(Cl)cc1C(=O)O
Cmax [1]: 22.5 µM | Tmax [2]: 2 h | half-life [3]: 1.7 h

O=C(COCC(=O)Nc1ccccc1-c1ccc(F)cc1)Nc1ccc(Cl)cc1C(=O)O
Cmax [5]: 41.8 µM | Tmax [6]: 1 h

CC(C)Oc1ccc(C(=O)Nc2ccc(Cl)cc2C(=O)O)cc1
Cmax [1]: 22.3 µM | Tmax [2]: 1 h | half-life [3]: 5 h | IC50 [4]: > 10000 nM

COc1ccccc1-c1ccc(C)c(NC(=O)COCC(=O)Nc2ccc(Cl)cc2C(=O)O)c1
Cmax [7]: 2.08 µM | Tmax [8]: 2 h | half-life [9]: 2.5 h

CC(=O)Nc1ccc(-c2ccc(C)c(NC(=O)COCC(=O)Nc3ccc(Cl)cc3C(=O)O)c2)cc1
Cmax [5]: 0.32 µM | Tmax [6]: 2 h | half-life [10]: 1.4 h

O=C(COCC(=O)Nc1ccc(Cl)cc1C(=O)O)Nc1ccc(-c2ccoc2)cc1
Cmax [7]: 17.6 µM | Tmax [8]: 2 h | half-life [9]: 4.2 h

O=C(Nc1ccc(Cl)cc1C(=O)[O-])c1cccc(-c2ccncc2)c1.[Na+]
Cmax [1]: 5.2 µM | Tmax [2]: 2 h | half-life [3]: 1.6 h | IC50 [4]: > 40000 nM

O=C(Nc1ccc(Cl)cc1C(=O)O)c1ccc(-c2cccs2)cc1
Cmax [1]: 38.4 µM | Tmax [2]: 2 h | half-life [3]: 1.9 h | IC50 [4]: > 20000 nM

O=C(COCC(=O)Nc1ccc(Cl)cc1C(=O)O)Nc1cccc(-c2cn[nH]c2)c1
Cmax [7]: 1.7 µM | Tmax [8]: 1 h | half-life [9]: 3.1 h

O=C(Nc1ccc(Cl)cc1C(=O)O)c1cccc(C2CCCCC2)c1
Cmax [1]: 3.3 µM | Tmax [2]: 1 h | half-life [3]: 1.4 h | IC50 [4]: 2420 nM

O=C(COCC(=O)Nc1ccc(Cl)cc1C(=O)O)Nc1cccc(-c2ccno2)c1
Cmax [7]: 14 µM | Tmax [8]: 1 h | half-life [9]: 6 h

CC(C)(C)c1ccc(C(=O)Nc2ccc(Cl)cc2C(=O)O)cc1
Cmax [1]: 64.9 µM | Tmax [2]: 1 h | half-life [3]: 3.4 h | IC50 [4]: 5200 nM

O=C(CSCC(=O)Nc1ccc(Cl)cc1C(=O)O)Nc1cccc(-c2ccoc2)c1
Cmax [1]: 5.4 µM | Tmax [2]: 1 h | half-life [3]: 2.6 h

O=C(COCC(=O)Nc1ccc(Cl)cc1C(=O)O)Nc1cccc(C(F)(F)F)c1
Cmax [5]: 58.6 µM | Tmax [6]: 1 h | half-life [10]: 0.8 h

O=C(Nc1ccc(Cl)cc1C(=O)O)c1cccc(-c2cccc3ccccc23)c1
Cmax [1]: 6.3 µM | Tmax [2]: 2 h | half-life [3]: 1.7 h | IC50 [4]: 900 nM

O=C(COCC(=O)Nc1ccc(Cl)cc1C(=O)O)Nc1cccc(-c2ccon2)c1
Cmax [7]: 2 µM | Tmax [8]: 2 h | half-life [9]: 1.9 h

COc1ccc(-c2ccc(C)c(NC(=O)COCC(=O)Nc3ccc(Cl)cc3C(=O)O)c2)cc1
Cmax [7]: 2.2 µM | Tmax [8]: 2 h | half-life [9]: 1 h

O=C(COCC(=O)Nc1ccc(Cl)cc1C(=O)O)Nc1cccc(-c2ccco2)c1
Cmax [7]: 11.5 µM | Tmax [8]: 2 h | half-life [9]: 4 h

O=C(Nc1ccc(Cl)cc1C(=O)O)c1cccc(-c2ccccc2)c1
Cmax [1]: 17 µM | Tmax [2]: 2 h | half-life [3]: 1.6 h | IC50 [4]: 2820 nM

O=C(Cc1cccc(-c2ccoc2)c1)Nc1ccc(Cl)cc1C(=O)O
Cmax [1]: 43.1 µM | Tmax [2]: 2 h | half-life [3]: 1.9 h

O=C(Nc1ccc(Cl)cc1C(=O)O)c1cccc(-c2ccoc2)c1
Cmax [1]: 29.4 µM | Tmax [2]: 2 h | half-life [3]: 2 h

CCN(C(=O)COCC(=O)Nc1ccc(Cl)cc1C(=O)O)c1cc(-c2ccc(F)cc2)ccc1C
Cmax [7]: 0.82 µM | Tmax [8]: 1 h | half-life [9]: 0.9 h

O=C(Nc1ccc(Cl)cc1C(=O)O)c1ccc(C2CCCCC2)cc1
Cmax [1]: 15.2 µM | Tmax [2]: 1 h | half-life [3]: 0.7 h | IC50 [4]: 2400 nM

O=C(Nc1ccc(Cl)cc1C(=O)O)c1cccc(C2=CCCCC2)c1
Cmax [1]: 5.2 µM | Tmax [2]: 1 h | half-life [3]: 0.7 h | IC50 [4]: 2310 nM
